Laboratory results as given in publication PMC8445441, “Elucidating the mechanism by which synthetic helper peptides sensitize Pseudomonas aeruginosa to multiple antibiotics” (PLoS Pathogens, 2021).
Read-outs that look alike come from different tables or passages of the source.

Legend:
[1] = tested on: P. aeruginosa AUMC-Pa-3; assay: microbe, parasite or virus in culture; conditions: for FICI: antibiotic + D-11 (MICb/MICbc 128/4); for MICac: MIC of the antibiotic in the combination: with D-11 at MICbc 4
In short: (§1)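 Values are lowest concentrations showing no visible growth after 18 h at 37 °C. Drugs were serially halved in MHB and combined with equal volumes of a roughly 1 × 10^6 CFU/mL suspension, following CLSI guidance, in triplicate.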

[2] = tested on: P. aeruginosa AUMC-Pa-4; assay: microbe, parasite or virus in culture; conditions: strain AUMC-Pa-4; for FICI: antibiotic + D-11 (MICb/MICbc 128/4); for MICa: MIC of the antibiotic: antibiotic alone; for MICa: MIC of the antibiotic / MICac: MIC of the antibiotic in the combination: unit not given; for MICac: MIC of the antibiotic in the combination: with D-11 at MICbc 4
In short: as §1

[3] = tested on: P. aeruginosa AUMC-Pa-5; assay: microbe, parasite or virus in culture; conditions: for FICI: antibiotic + D-11 (MICb/MICbc 64/4); for MICac: MIC of the antibiotic in the combination: with D-11 at MICbc 4
In short: as §1

[4] = tested on: P. aeruginosa AUMC-Pa-6; assay: microbe, parasite or virus in culture; conditions: strain AUMC-Pa-6; for FICI: antibiotic + D-11 (MICb/MICbc 64/4); for MICa: MIC of the antibiotic: antibiotic alone; for MICa: MIC of the antibiotic / MICac: MIC of the antibiotic in the combination: unit not given; for MICac: MIC of the antibiotic in the combination: with D-11 at MICbc 4
In short: as §1

[5] = tested on: P. aeruginosa PAO1; assay: microbe, parasite or virus in culture; conditions: PAO1; for MIC: Pseudomonas aeruginosa, PAO1, 18 h, read-out: MICa: the MIC of antibiotics, S3 Table, antibiotic alone; for FICI / MICac: the MIC for the antibiotic in the combination: S3 Table
In short: as §1

[6] = tested on: P. aeruginosa ATCC27853; assay: microbe, parasite or virus in culture; parameters: MICa: MIC of the antibiotic / MICac: MIC of the antibiotic in the combination: unit not given beside the values; conditions: strain ATCC27853; for FICI: antibiotic + D-11 (MICb/MICbc 32/4); for MICa: MIC of the antibiotic: antibiotic alone; for MICa: MIC of the antibiotic / MICac: MIC of the antibiotic in the combination: unit not given; for MICac: MIC of the antibiotic in the combination: with D-11 at MICbc 4
In short: as §1

[7] = tested on: P. aeruginosa NR-31040; assay: microbe, parasite or virus in culture; parameters: MICa: MIC of the antibiotic / MICac: MIC of the antibiotic in the combination: unit not given beside the values; conditions: for FICI: antibiotic + D-11 (MICb/MICbc 128/4); for MICac: MIC of the antibiotic in the combination: with D-11 at MICbc 4
In short: as §1

[8] = tested on: P. aeruginosa NR-31041; assay: microbe, parasite or virus in culture; parameters: MICa: MIC of the antibiotic / MICac: MIC of the antibiotic in the combination: unit not given beside the values; conditions: strain NR-31041; for FICI: antibiotic + D-11 (MICb/MICbc 64/4); for MICa: MIC of the antibiotic: antibiotic alone; for MICa: MIC of the antibiotic / MICac: MIC of the antibiotic in the combination: unit not given; for MICac: MIC of the antibiotic in the combination: with D-11 at MICbc 4
In short: as §1

[9] = tested on: P. aeruginosa PA14; assay: microbe, parasite or virus in culture; parameters: MICa: MIC of the antibiotic / MICac: MIC of the antibiotic in the combination: unit not given beside the values; conditions: strain PA14; for FICI: antibiotic + D-11 (MICb/MICbc 128/4); for MICa: MIC of the antibiotic: antibiotic alone; for MICa: MIC of the antibiotic / MICac: MIC of the antibiotic in the combination: unit not given; for MICac: MIC of the antibiotic in the combination: with D-11 at MICbc 4
In short: as §1

[10] = tested on: P. aeruginosa PAK; assay: microbe, parasite or virus in culture; parameters: MICa: MIC of the antibiotic / MICac: MIC of the antibiotic in the combination: unit not given beside the values; conditions: strain PAK; for FICI: antibiotic + D-11 (MICb/MICbc 64/4); for MICa: MIC of the antibiotic: antibiotic alone; for MICa: MIC of the antibiotic / MICac: MIC of the antibiotic in the combination: unit not given; for MICac: MIC of the antibiotic in the combination: with D-11 at MICbc 4
In short: as §1

[11] = tested on: P. aeruginosa HM-214; conditions: strain HM-214; antibiotic + D-11 (MICb/MICbc 128/4)
In short: as §1

[12] = tested on: P. aeruginosa AUMC-Pa-1; conditions: strain AUMC-Pa-1; antibiotic + D-11 (MICb/MICbc 128/4)
In short: as §1

[13] = tested on: P. aeruginosa AUMC-Pa-2; conditions: strain AUMC-Pa-2; antibiotic + D-11 (MICb/MICbc 64/4)
In short: as §1

[14] = tested on: clinical P. aeruginosa isolates; assay: microbe, parasite or virus in culture; conditions: Pseudomonas aeruginosa, 18 h, antibiotic alone
In short: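 MIC is the lowest drug concentration showing no visible growth after 18 h at 37 °C. Two-fold dilutions in MHB were combined with an equal volume of bacterial suspension (about 1 × 10^6 CFU/mL), following CLSI broth microdilution, in triplicate.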

[15] = strain AUMC-Pa-3, unit not given
[16] = strain AUMC-Pa-5, unit not given
[17] = strain NR-31040, unit not given
[18] = read-out: Antibiotic sensibility (MIC) of clinical P. aeruginosa isolate AUMC-Pa-1, strain AUMC-Pa-1
[19] = read-out: Antibiotic sensibility (MIC) of clinical P. aeruginosa isolate AUMC-Pa-2, strain AUMC-Pa-2
[20] = read-out: Antibiotic sensibility (MIC) of clinical P. aeruginosa isolate AUMC-Pa-3, strain AUMC-Pa-3
[21] = read-out: Antibiotic sensibility (MIC) of clinical P. aeruginosa isolate AUMC-Pa-4, strain AUMC-Pa-4
[22] = read-out: Antibiotic sensibility (MIC) of clinical P. aeruginosa isolate AUMC-Pa-5, strain AUMC-Pa-5
[23] = read-out: Antibiotic sensibility (MIC) of clinical P. aeruginosa isolate AUMC-Pa-6, strain AUMC-Pa-6
[24] = read-out: Antibiotic sensibility (MIC) of clinical P. aeruginosa isolate HM-214, strain HM-214
[25] = read-out: Antibiotic sensibility (MIC) of clinical P. aeruginosa isolate NR-31040, strain NR-31040
[26] = read-out: Antibiotic sensibility (MIC) of clinical P. aeruginosa isolate NR-31041, strain NR-31041

For `C[C@@H](O)[C@H]1C(=O)N2C(C(=O)O)=C(S[C@@H]3CN[C@H](C(=O)N(C)C)C3)[C@H](C)[C@H]12` [Meropenem], the MIC ([1]; Pseudomonas aeruginosa, AUMCPA3, 18 h, read-out: MICa: MIC of the antibiotic) was 0.25 µM, the FICI ([1]; strain AUMC-Pa-3) was 1.031 and the “MICac: MIC of the antibiotic in the combination” value (“MICac: MIC of the antibiotic” for short) [1, 15] was 0.25/0.25. For the same compound, the FICI [2] was 1.031, the “MICa: MIC of the antibiotic” value [2] was 2/2 and the “MICac: MIC of the antibiotic” value [2] was 2/2. For the same compound, the MIC ([3]; Pseudomonas aeruginosa, AUMCPA5, 18 h, read-out: MICa: MIC of the antibiotic) was 0.25 µM, the FICI ([3]; strain AUMC-Pa-5) was 2.063 and the “MICac: MIC of the antibiotic” value [3, 16] was 0.5. For the same compound, the FICI [4] was 2.063, the “MICa: MIC of the antibiotic” value [4] was 2 and the “MICac: MIC of the antibiotic” value [4] was 4. For the same compound, the MIC [5] was 2 µM, the FICI ([5]; antibiotic + 4 μM D-11) was 0.375 and the “MICac: the MIC for the antibiotic in the combination” value (shortened to “MICac: the MIC for the antibiotic”) ([5]; with 2 μM D-11) was 1 µM. The “MICac: the MIC for the antibiotic” value ([5]; with 4 μM D-11) was 0.5 µM, the FICI [6] was 1.125 and the “MICa: MIC of the antibiotic” value [6] was 1/1. The “MICac: MIC of the antibiotic” value [6] was 1/1, the FICI ([7]; strain NR-31040) was 0.531 and the “MICa: MIC of the antibiotic” value ([7]; strain NR-31040, antibiotic alone, unit not given) was 2. For the same compound, the “MICac: MIC of the antibiotic” value [7, 17] was 1, the FICI [8] was 0.563 and the “MICa: MIC of the antibiotic” value [8] was 4. For the same compound, the “MICac: MIC of the antibiotic” value [8] was 2, the FICI [9] was 1.031 and the “MICa: MIC of the antibiotic” value [9] was 2/2. The “MICac: MIC of the antibiotic” value [9] was 2/2, the FICI [10] was 1.063 and the “MICa: MIC of the antibiotic” value [10] was 1/1. For the same compound, the “MICac: MIC of the antibiotic” value [10] was 1/1, the FICI [11] was 1.031 and the FICI [12] was 1.031. For the same compound, the FICI [13] was 2.063, the MIC [14, 18] was 1 µM and the MIC [14, 19] was 1 µM. For the same compound, the MIC [14, 20] was 0.25 µM, the MIC [14, 21] was 2 µM and the MIC [14, 22] was 0.25 µM. It also gave an MIC [14, 23] of 2 µM, an MIC [14, 24] of 0.25 µM and an MIC [14, 25] of 2 µM. For the same compound, the MIC [14, 26] was 4 µM.
`CN(C)c1ccc(O)c2c1C[C@H]1C[C@H]3[C@H](N(C)C)C(O)=C(C(N)=O)C(=O)[C@@]3(O)C(O)=C1C2=O` [Minocycline] was tested, and the FICI ([1]; strain AUMC-Pa-3) was 0.156, the “MICa: MIC of the antibiotic” value ([1]; strain AUMC-Pa-3, antibiotic alone, unit not given) was 16 and the “MICac: MIC of the antibiotic” value [1, 15] was 2. The FICI [2] was 0.156, the “MICa: MIC of the antibiotic” value [2] was 16 and the “MICac: MIC of the antibiotic” value [2] was 2. The FICI ([3]; strain AUMC-Pa-5) was 1.063, the “MICa: MIC of the antibiotic” value ([3]; strain AUMC-Pa-5, antibiotic alone, unit not given) was 16/16 and the “MICac: MIC of the antibiotic” value [3, 16] was 16/16. For the same compound, the FICI [4] was 0.313, the “MICa: MIC of the antibiotic” value [4] was 16 and the “MICac: MIC of the antibiotic” value [4] was 4. The MIC [5] was 16 µM, the FICI ([5]; antibiotic + 2 μM D-11) was 0.094 and the FICI ([5]; antibiotic + 4 μM D-11) was 0.141. For the same compound, the “MICac: the MIC for the antibiotic” value ([5]; with 2 μM D-11) was 0.5 µM, the “MICac: the MIC for the antibiotic” value ([5]; with 4 μM D-11) was 0.25 µM and the FICI [6] was 0.188. The “MICa: MIC of the antibiotic” value [6] was 16, the “MICac: MIC of the antibiotic” value [6] was 1 and the MIC ([7]; Pseudomonas aeruginosa, NR31040, 18 h, read-out: MICa: MIC of the antibiotic) was 16 µM. The FICI ([7]; strain NR-31040) was 0.063, the “MICac: MIC of the antibiotic” value [7, 17] was 0.5 and the FICI [8] was 0.188. The “MICa: MIC of the antibiotic” value [8] was 16, the “MICac: MIC of the antibiotic” value [8] was 2 and the FICI [9] was 0.156. For the same compound, the “MICa: MIC of the antibiotic” value [9] was 16, the “MICac: MIC of the antibiotic” value [9] was 2 and the FICI [10] was 0.125. The “MICa: MIC of the antibiotic” value [10] was 16, the “MICac: MIC of the antibiotic” value [10] was 1 and the FICI [11] was 0.094. The FICI [12] was 0.094, the FICI [13] was 0.313 and the MIC [14, 18] was 32 µM. It also gave an MIC [14, 19] of 8 µM, an MIC [14, 20] of 16 µM and an MIC [14, 21] of 16 µM. For the same compound, the MIC [14, 22] was 16 µM, the MIC [14, 23] was 16 µM and the MIC [14, 24] was 16 µM. It also gave an MIC [14, 25] of 16 µM and an MIC [14, 26] of 16 µM.
